This is an account of results in patent US20100168250A1, “USE OF CYCLOHEXANEHEXOL DERIVATIVES IN THE TREATMENT OF OCULAR DISEASE” (priority 2007, published 2010).

This assay deals with ARPE-19 cells. Description: Effect of AZD103 on Aβ1-42-induced VEGF secretion in ARPE-19 cells (VEGF ELISA). Format: cell-based, human. An excerpt: The potential of AZD-103 to neutralize the effects of Aβ on VEGF expression by RPE cells was investigated using the following materials and methods.
Materials: Human VEGF Duoset, 2nd Generation was obtained from R & D Systems [# DY293B]. 3,3′,5,5′-Tetramethylbenzidine Liquid Substrate (TMB) was obtained from Sigma [# S8865]. The stop solution for TMB was also obtained from Sigma [# S5814]. Tween-20 was obtained from Fisher [# BP 337-500]; Probumin was obtained from Millipore [#82-045-1]; and, 10× Phosphate Buffered Saline (PBS) was obtained from Roche [#11666789001]. […] The Media was then assessed for levels of VEGF by ELISA (R&D Systems, Minneapolis, Minn.) VEGF ELISA: Conditioned media collected from cell cultures grown in the presence or absence of Aβ1-42 and AZD103 were tested for vascular endothelial growth factor (VEGF) expression using a human VEGF duoset ELISA development kit as described by the manufacturer (R &D systems). […] The reaction was stopped and the colour development was read spectrophotometrically at a wavelength of 450 nm.
A general note: In an ELISA, binding on a coated surface is turned into a signal by an enzyme label.

Take `O[C@H]1[C@H](O)[C@@H](O)[C@H](O)[C@@H](O)[C@@H]1O` [AZD103]: the “amount of secreted VEGF” value (ARPE-19 cells (1.5×10^4), Aβ1-42 oligomers pre-incubated 2 hours at 37° C. with AZD103 at weight ratios 1:0.5, 1:1, 1:2, 24 Hr treatment, serum-free medium, ELISA) is “effective towards reducing the amount of secreted VEGF”. Moreover, the “VEGF expression by RPE cells in presence of Aβ, compared to basal levels (absence of Aβ)” value (ARPE-19 cells, expressed as comparison to Normal ARPE-19 cells that received no treatment) is recorded as “returned to basal levels”.
